Assay results: patent publication US8721858B2, “Non-focusing tracers for indirect detection in electrophoretic displacement techniques” (The Board of Trustees of the Leland Stanford Junior …, priority 2010, dated 2014)

How the values were obtained:
[1] = limiting fully ionized mobility, value = mobility × 10^9; cited from earlier work
[2] = Estimated effective mobilities in ITP zones of FIGS. 4a-b; details: % of −17.8×10^−9 m^2V^−1s^−1
Description: We used numerical codes to predict the composition, pH, and fluorescence intensity of each zone for assay design and theory validation. Transient and steady state problems can be simulated with programs such as Simul 5, or a MATLAB-based program developed in-house. For fast solution of most problems, however, we used a steady-state solver written in-house based on the RFQ method described by Beckers and Everaerts. This code adjusts ion mobility and pKa for ionic strength based on the Davies equation and Robinson-Stokes model, respectively. See Table 1 above for the limiting electrophoretic mobilities and pKas of example chemicals used in simulations.
Further details relating to FIGS. 4a-b are as follows. FIGS. 4a-b show detection of HEPES and MOPS with a counterionic (FIG. 4a) and overspeeding coionic (FIG. 4b) fluorescent non-focusing tracer. Top panes are ratios of zone intensities IA/IL, and bottom panes are corresponding images. The zones are, from left to right, TE (tricine), HEPES, MOPS, and LE (MES). The concentration of the tracer increases in high mobility zones. The mobility of the coionic tracer Alexa Fluor 488 (AF488) is close to that of MES, so it is especially sensitive in this region. […]. […] For the left plots, the LE contains 50 μM R6G. For the right plots, the TE contains 5 μM AF488. […].
As discussed in Theory, the sensitivity of counterspeeders tends to be approximately uniform for all analyte mobilities. In contrast, underspeeders and overspeeders offer the potential advantage of extreme sensitivity to analytes with mobilities approximately equal to that of the tracer. In FIGS. 4a-b, we estimate the effective mobility of the LE (MES) to be −17.8×10^−9 m^2V^−1s^−1, and the effective mobilities of MOPS, HEPES, and tricine to be respectively 58%, 41%, and 30% of that value. For the counterspeeder of FIG. 4a, the ratios of analyte-to-LE zone intensities are similar to the effective mobility ratios for MOPS, HEPES, and tricine (I/IL values of 0.69, 0.51, and 0.34, respectively). […]

Structure (SMILES)	fully-ionized Mobility · 10^9 [1]	effective mobility relative to that of the LE (MES) [2]
CC(=O)O [Acetic acid]	(−1, 42.4) m^2V^−1s^−1	
NC(CO)(CO)CO [Tris, 2-Amino-2-hydroxymethyl-propane-1,3-diol]	(−1, 29.5) m^2V^−1s^−1	
O=S(=O)(O)CCN1CCN(CCO)CC1 [HEPES, 2-[4-(2-hydroxyethyl)piperazin-1-yl]ethanesulfonic acid]	(−1, 21.8) m^2V^−1s^−1	41%
O=C(O)CNC(CO)(CO)CO [Tricine, N-(2-Hydroxy-1,1-bis(hydroxymethyl)ethyl)glycine]	(−1, 26.6) m^2V^−1s^−1	30%
Cl [Chloride]	(−1, 79.1) m^2V^−1s^−1	
[Ba+2].[OH-].[OH-] [Ba(OH)2]	(+2 ,66) m^2V^−1s^−1	
O=S(=O)(O)CCCN1CCOCC1 [MOPS, 3-morpholinopropane-1-sulfonic acid]		58%
